From patent US6359145B1, “Imidazole compounds” (Fujisawa Pharmaceutical Co., Ltd., priority 1998, dated 2002) come the findings set out here.

Data set [1] deals with TNF-α and IL-10 amounts in plasma of LPS-injected BALB/c mice. The data set is described as follows: Endotoxin-induced Cytokine Production. It is filed as in vivo. The following applies: 320 mg/kg, administered 30 minutes before LPS 0.1 mg/kg i.v.; plasma one hour after LPS; ELISA. Here is the method:
Endotoxin-induced Cytokine Production
BALB/c mice (male, 7 weeks old) were injected i.v. with 0.1 mg/kg of lipopolysaccharides (LPS) in a total volume of 0.2 ml saline. Heparinized blood samples were taken one hour after LPS injection and plasma was collected by centrifugation. TNF-α (inflammatory cytokine) and IL-10 (anti-inflammatory cytokine) amounts in plasma were assayed by ELISA. Test compounds were administered 30 minutes before LPS injection.
(An ELISA detects its analyte on a solid surface through an enzyme-linked reagent.)

Molecules are shown by their SMILES.

The melting point is the temperature of the solid-liquid transition. Molecule `CCOC(=O)c1cccc(CCC(CO)n2cnc(C(N)=O)c2)c1` (stereo not drawn) showed a melting point of 92 to 95 °C. On the same count and under the same terms, to `COC(=O)Cc1cccc(CCC(CO)n2cnc(C(N)=O)c2)c1` (stereo not drawn) belongs 138.5 to 141 °C.

`N#Cc1cn(C(CO)CCc2ccccc2)cn1` (stereo not drawn) displayed a melting point of 111 to 115 °C. Same read-out and setting: to `Cc1ccccc1CC[C@H]([C@H](C)O)n1cnc(C(N)=O)c1` belongs 60 to 62 °C; to `C[C@H](O)[C@@H](CCc1cccc(Cl)c1Cl)n1cnc(C(N)=O)c1`, 70 to 75 °C. The same measure, in the same setting: the figure for `NC(=O)c1cn(C(CO)c2ccccc2)cn1` (stereo not drawn) is 147 to 149 °C.

`CCCCCCC(CO)n1cnc(C(N)=O)c1` (stereo not drawn) displayed a melting point of 97.5 to 100.5 °C.

Take `CCCC(CO)n1cnc(C(N)=O)c1` (stereo not drawn): the melting point is 160 °C. Same read-out and setting: to `NC(=O)c1cn(C(CO)CCc2cccc(C(F)(F)F)c2)cn1` (stereo not drawn) belongs 103 to 106 °C; to `NC(=O)c1cn(C(CO)COc2ccccc2)cn1` (stereo not drawn), 147.5 to 149.5 °C; to `Nc1nc(-c2cn([C@H](CO)CCc3ccccc3)cn2)n[nH]1`, 80 °C (dec.).

The molecule `Cc1ccc(CCC(CO)n2cnc(C(N)=O)c2)cc1` (stereo not drawn) came in with a melting point of 138 to 141 °C. As for `NC(=O)c1cn(C(CO)CCc2ccccc2)cn1` (stereo not drawn) [Example 1, 1-(1-Hydroxy-4-phenyl-2-butyl)imidazole-4-carboxamide], the melting point fell in the range of 127 to 129.5 °C. For the same molecule, in data set [1], the “IL-10” value was 137 ± 14 pg/mL and the “TNF-α” value came to 3.1 ± 0.5 ng/mL.
